Data as given in ChEMBL document CHEMBL1134726, “SAR studies of novel 5-substituted 2-arylindoles as nonpeptidyl GnRH receptor antagonists” (Bioorg Med Chem Lett, 2001).

target: T1, Gonadotropin-releasing hormone receptor (Rattus norvegicus, UniProt P30969); test: Binding affinity to rat Gonadotropin-releasing hormone receptor.
T1 sequence (P30969 whole entry): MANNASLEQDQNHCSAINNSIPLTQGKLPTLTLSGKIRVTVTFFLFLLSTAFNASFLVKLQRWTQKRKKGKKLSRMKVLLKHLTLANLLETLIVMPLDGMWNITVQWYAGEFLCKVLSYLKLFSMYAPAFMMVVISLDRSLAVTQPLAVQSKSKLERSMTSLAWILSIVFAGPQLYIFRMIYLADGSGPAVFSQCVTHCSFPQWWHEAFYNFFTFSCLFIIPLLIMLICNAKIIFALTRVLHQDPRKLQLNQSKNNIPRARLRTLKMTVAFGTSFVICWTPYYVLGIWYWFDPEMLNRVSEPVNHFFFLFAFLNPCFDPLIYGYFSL

SMILES | IC50 [nM]
Cc1cc(C)cc(-c2[nH]c3ccc(OCc4ccccc4)cc3c2CCNCCCCc2ccc(O)cc2)c1 | 100
Cc1cc(C)cc(-c2[nH]c3ccc(OC(=O)N4CCNCC4)cc3c2CCNCCCCc2ccc(O)cc2)c1 | 100
CCS(=O)(=O)N1CCN(C(=O)Oc2ccc3[nH]c(-c4cc(C)cc(C)c4)c(CCNCCCCc4ccc(O)cc4)c3c2)CC1 | 4
Cc1cc(C)cc(-c2[nH]c3ccc(OC(=O)N(C)C)cc3c2CCNCCCCc2ccc(O)cc2)c1 | 30
CNC(=O)Oc1ccc2[nH]c(-c3cc(C)cc(C)c3)c(CCNCCCCc3ccc(O)cc3)c2c1 | 30
Cc1cc(C)cc(-c2[nH]c3ccc(OC(=O)N4CCN(CC(N)=O)CC4)cc3c2CCNCCCCc2ccc(O)cc2)c1 | 27
CCNC(=O)Oc1ccc2[nH]c(-c3cc(C)cc(C)c3)c(CCNCCCCc3ccc(O)cc3)c2c1 | 16
CCC(=O)N1CCN(C(=O)Oc2ccc3[nH]c(-c4cc(C)cc(C)c4)c(CCNCCCCc4ccc(O)cc4)c3c2)CC1 | 15
Cc1cc(C)cc(-c2[nH]c3ccc(OC(=O)N4CCOCC4)cc3c2CCNCCCCc2ccc(O)cc2)c1 | 20
CCCC(=O)N1CCN(C(=O)Oc2ccc3[nH]c(-c4cc(C)cc(C)c4)c(CCNCCCCc4ccc(O)cc4)c3c2)CC1 | 30
Cc1cc(C)cc(-c2[nH]c3ccc(OC(=O)N4CCCCC4)cc3c2CCNCCCCc2ccc(O)cc2)c1 | 32
CCCS(=O)(=O)N1CCN(C(=O)Oc2ccc3[nH]c(-c4cc(C)cc(C)c4)c(CCNCCCCc4ccc(O)cc4)c3c2)CC1 | 12
CCCNC(=O)Oc1ccc2[nH]c(-c3cc(C)cc(C)c3)c(CCNCCCCc3ccc(O)cc3)c2c1 | 30
Cc1cc(C)cc(-c2[nH]c3ccc(OC(=O)N4CCN(C)CC4)cc3c2CCNCCCCc2ccc(O)cc2)c1 | 25
CC(=O)N1CCN(C(=O)Oc2ccc3[nH]c(-c4cc(C)cc(C)c4)c(CCNCCCCc4ccc(O)cc4)c3c2)CC1 | 30
Cc1cc(C)cc(-c2[nH]c3ccc(OC(=O)N4CCN(S(C)(=O)=O)CC4)cc3c2CCNCCCCc2ccc(O)cc2)c1 | 6
COc1ccc2[nH]c(-c3cc(C)cc(C)c3)c(CCNCCCCc3ccc(O)cc3)c2c1 | 40
Cc1cc(C)cc(-c2[nH]c3ccc(OC(=O)N4CCN(S(=O)(=O)C(C)C)CC4)cc3c2CCNCCCCc2ccc(O)cc2)c1 | 7
CCOC(=O)N1CCN(C(=O)Oc2ccc3[nH]c(-c4cc(C)cc(C)c4)c(CCNCCCCc4ccc(O)cc4)c3c2)CC1 | 32
